Results published in PubChem BioAssay AID366 (MTDP, 2006).

Target: Ribonuclease H1 (Homo sapiens) (UniProt O60930)
Experiment: inhibition of human ribonuclease H1 activity – biochemical, FRET RNA/DNA duplex cleavage, dose response (AID 366);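 also: potency is for inhibitors that lower RNA cleavage and so lower fluorescence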
Conditions: human RNase H1, FRET RNA/DNA duplex cleavage, fluorescence

Ribonuclease H1 (Homo sapiens), sequence (O60930 whole entry, looked up): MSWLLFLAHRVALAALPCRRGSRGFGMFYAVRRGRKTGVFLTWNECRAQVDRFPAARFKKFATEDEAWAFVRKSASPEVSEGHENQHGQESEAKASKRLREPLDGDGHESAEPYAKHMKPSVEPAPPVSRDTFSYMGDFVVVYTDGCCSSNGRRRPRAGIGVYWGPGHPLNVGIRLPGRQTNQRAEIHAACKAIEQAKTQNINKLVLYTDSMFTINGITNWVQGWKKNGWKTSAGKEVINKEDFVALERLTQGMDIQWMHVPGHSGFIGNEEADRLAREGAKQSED

IC50: 8 µM
SMILES: Oc1ccc2ccccc2c1C=NCc1c(O)ccc2ccccc12
